This note sets out measurements from ChEMBL document CHEMBL2203133 (J Med Chem, 2012).

Data set [1] has as its target T1, Serine/threonine-protein kinase Chk1 (Homo sapiens, UniProt O14757).
T1 sequence (O14757 whole entry): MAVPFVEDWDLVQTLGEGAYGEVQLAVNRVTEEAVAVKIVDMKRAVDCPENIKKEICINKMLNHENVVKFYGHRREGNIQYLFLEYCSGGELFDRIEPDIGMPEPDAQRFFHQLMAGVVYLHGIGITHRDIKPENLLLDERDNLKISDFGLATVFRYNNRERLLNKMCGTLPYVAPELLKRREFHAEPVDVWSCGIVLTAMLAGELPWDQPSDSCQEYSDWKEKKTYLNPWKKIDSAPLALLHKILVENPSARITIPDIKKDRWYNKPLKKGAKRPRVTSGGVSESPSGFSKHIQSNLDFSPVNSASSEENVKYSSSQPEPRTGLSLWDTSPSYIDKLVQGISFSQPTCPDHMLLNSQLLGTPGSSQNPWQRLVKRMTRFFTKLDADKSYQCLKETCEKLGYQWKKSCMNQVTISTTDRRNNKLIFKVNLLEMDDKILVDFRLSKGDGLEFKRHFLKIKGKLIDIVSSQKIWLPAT

In data set [2] the test system is Plasma. In words: Dose normalized plasma concentration in BALB/c mouse at 1 mg/kg, iv at 6 hrs administered as bolus dose. Conditions: in vivo. The class given is ADME, organism-based. Also noted: dose 1 mg/kg, route intravenous.
The nature of data set [3]: in vitro. The note with it: mouse, liver microsomes.
Data set [4] relates to Plasma. The data set is described as follows: Dose normalized plasma concentration in BALB/c mouse at 1 mg/kg, iv at 1 hr administered as bolus dose. The class given is ADME, organism-based. Set-up: dose 1 mg/kg, route intravenous. Conditions: in vivo.
Data set [5] can be described thus: Plasma concentration in BALB/c mouse at 10 mg/kg, po at 6 hrs. Also noted: dose 10 mg/kg, route oral. Format: ADME, organism-based.
Data set [6] can be described thus: Plasma concentration in BALB/c mouse at 10 mg/kg, po at 1 hr. The class given is ADME, organism-based. Set-up: dose 10 mg/kg, route oral.
Data set [7] can be described thus: Plasma concentration in BALB/c mouse at 10 mg/kg, iv at 1 hr administered as bolus dose. The class given is ADME, organism-based. Also noted: dose 10 mg/kg, route intravenous.
Data set [8] has as its target Serine/threonine-protein kinase Chk2 (Homo sapiens, UniProt O96017).
A short description of data set [9]: Thermodynamic solubility of the compound in water. Format: physicochemical.
Data set [10] is described as follows: Toxicity in po dosed mouse. The class given is organism-based. Conditions: in vivo.
Data set [11] deals with Mus musculus. The data set is described as follows: Clearance in BALB/c mouse at 10 mg/kg, iv and po. Format: ADME, organism-based. Set-up: dose 10 mg/kg, route oral. The note with it: in vivo.
The test system of data set [12] is Mus musculus. The data set is described as follows: Volume of distribution at steady state in BALB/c mouse at 10 mg/kg, iv and po. Format: ADME, organism-based. Also noted: dose 10 mg/kg, route oral. Conditions: in vivo.
Data set [13] is described as follows: Drug uptake in human SW620 cells xenografted in athymic nude mouse at 160 mg/kg, po measured at 6 to 12 hrs in presence of gemcitabine. Also noted: dose 160 mg/kg, route oral. Conditions: in vivo. Format: ADME, organism-based, SW-620.
The test system of data set [14] is Plasma. In words: Plasma protein binding in human. Format: ADME, cell-free.
For data set [15], the species on record is Mus musculus. The note with it: SW-620, 160 mg/kg.
Data set [16] concerns Caco-2. Conditions: human.
Description: Permeability across apical to basolateral side in human Caco2 cells
Data set [17] deals with Mus musculus. The data set is described as follows: Oral bioavailability in BALB/c mouse at 10 mg/kg. Conditions: in vivo. Format: ADME, organism-based.
For data set [18], the target named is Cyclin-dependent kinase 1 (Homo sapiens, UniProt P06493).
The nature of data set [19]: Aqueous solubility in phosphate buffer at pH 6.5. The class given is physicochemical.
For data set [20], the species on record is Mus musculus. Conditions: SW-620, 160 mg/kg. This is another data set of the same source.
The target in data set [21] is Voltage-gated inwardly rectifying potassium channel KCNH2 (Homo sapiens, UniProt Q12809).
Description: Inhibition of human ERG overexpressed in HEK cells
Data set [22] is described as follows: Plasma concentration in BALB/c mouse at 10 mg/kg, iv at 6 hrs administered as bolus dose. Format: ADME, organism-based. Also noted: dose 10 mg/kg, route intravenous.
In data set [23] the test system is Mus musculus. In words: Toxicity in athymic mouse xenografted with human Calu6 cells assessed as body weight loss at 75 mg/kg, po tid for 7 days. The class given is organism-based, Calu-6. Set-up: dose 75 mg/kg, route oral. Conditions: in vivo, 168 h.
Data set [24] concerns the target Potassium voltage-gated channel subfamily A member 5 (Homo sapiens) (UniProt P22460). The data set is described as follows: Inhibition of human Kv1.5 at 10 uM.
The target in data set [25] is Kir2.1 (Homo sapiens, UniProt P63252). The data set is described as follows: Inhibition of human Kir2.1 at 10 uM.
In data set [26] the test system is Mus musculus. In words: Toxicity in athymic mouse xenografted with human HT-29 cells assessed as body weight loss at 75 mg/kg, po tid for 7 days. The class given is organism-based. Also noted: dose 75 mg/kg, route oral. The note with it: in vivo, 168 h. For orientation: A xenograft is tissue or cells of one species grown in another, often human tumour cells in immunodeficient mice.

Data set [27] deals with Kv4.3/KchIP2 (Homo sapiens, UniProt Q9NS61+Q9UK17). The data set is described as follows: Inhibition of human Kv4.3/KchIP2 at 10 uM. The class given is protein-complex assay.
Data set [28] has as its system Mus musculus. In words: Toxicity in athymic mouse xenografted with human SW620 cells assessed as body weight loss at 75 mg/kg, po tid for 4 days. Format: organism-based, SW-620. Set-up: dose 75 mg/kg, route oral. Conditions: in vivo, 96 h.
In data set [29] the target is Interleukin-1 receptor-associated kinase 1 (Homo sapiens) (UniProt P51617). The data set is described as follows: Inhibition of human IRAK1 at 1 uM by radiometric assay in presence of ATP.
Data set [30] deals with KCNQ1/MINK (IKs) (Homo sapiens, UniProt P15382+P51787). In words: Inhibition of human KCNQ1/MINK at 10 uM. The class given is protein-complex assay.
The target in data set [31] is Ribosomal protein S6 kinase alpha-1 (Homo sapiens) (UniProt Q15418). The data set is described as follows: Inhibition of human RSK1 at 1 uM by radiometric assay in presence of ATP.
Data set [32] concerns the target High affinity nerve growth factor receptor (Homo sapiens) (UniProt P04629). In words: Inhibition of human TRKA at 1 uM by radiometric assay in presence of ATP.
In data set [33] the target is Nav1.5 (Homo sapiens, UniProt Q14524). The data set is described as follows: Inhibition of human Nav1.5 at 10 uM.
Data set [34] concerns the target AMP-activated protein kinase, AMPK (Homo sapiens) (UniProt P54646+O43741+P54619+Q9UGJ0+Q9Y478+Q13131+Q9UGI9). The data set is described as follows: Inhibition of human AMPK at 1 uM by radiometric assay in presence of ATP. The class given is protein-complex assay.
For data set [35], the target named is Cav1.2 (Homo sapiens, UniProt Q13936). The data set is described as follows: Inhibition of human Cav1.2 at 10 uM.
The nature of data set [36]: Drug uptake in human SW620 cells xenografted in athymic nude mouse at 300 mg/kg, po measured at 6 to 12 hrs in presence of gemcitabine. The class given is ADME, organism-based, SW-620. Set-up: dose 300 mg/kg, route oral. Conditions: in vivo.
For data set [37], the target named is Potassium/sodium hyperpolarization-activated cyclic nucleotide-gated channel 4 (Homo sapiens) (UniProt Q9Y3Q4). In words: Inhibition of human HCN4 at 10 uM.
Data set [38] has as its target Serine/threonine-protein kinase BRSK1 (Homo sapiens) (UniProt Q8TDC3). The data set is described as follows: Inhibition of human BRSK1 at 1 uM by radiometric assay in presence of ATP.
Data set [39] deals with Ribosomal protein S6 kinase alpha-3 (Homo sapiens) (UniProt P51812). The data set is described as follows: Inhibition of human RSK2 at 1 uM by radiometric assay in presence of ATP.
Data set [40] relates to Mus musculus. In words: Inhibition of CHK1 autophosphorylation in human SW620 cells xenografted in athymic nude mouse at 300 mg/kg, po measured at 6 hrs by Western blot analysis in presence of gemcitabine. Format: functional, organism-based. Also noted: dose 300 mg/kg. The note with it: SW-620.
Data set [41] relates to Mus musculus. In words: Inhibition of CHK1 in human SW620 cells xenografted in athymic nude mouse at 300 mg/kg, po measured at 12 hrs by Western blot analysis in presence of gemcitabine. Set-up: dose 300 mg/kg. Format: functional, organism-based. The note with it: SW-620.

Converted amounts (≈) assume the structure as drawn. The source made the active and inactive calls. The calls are words filed in the database; no cut-off is given here.

Serine/threonine-protein kinase Chk2, sequence (O96017 whole entry): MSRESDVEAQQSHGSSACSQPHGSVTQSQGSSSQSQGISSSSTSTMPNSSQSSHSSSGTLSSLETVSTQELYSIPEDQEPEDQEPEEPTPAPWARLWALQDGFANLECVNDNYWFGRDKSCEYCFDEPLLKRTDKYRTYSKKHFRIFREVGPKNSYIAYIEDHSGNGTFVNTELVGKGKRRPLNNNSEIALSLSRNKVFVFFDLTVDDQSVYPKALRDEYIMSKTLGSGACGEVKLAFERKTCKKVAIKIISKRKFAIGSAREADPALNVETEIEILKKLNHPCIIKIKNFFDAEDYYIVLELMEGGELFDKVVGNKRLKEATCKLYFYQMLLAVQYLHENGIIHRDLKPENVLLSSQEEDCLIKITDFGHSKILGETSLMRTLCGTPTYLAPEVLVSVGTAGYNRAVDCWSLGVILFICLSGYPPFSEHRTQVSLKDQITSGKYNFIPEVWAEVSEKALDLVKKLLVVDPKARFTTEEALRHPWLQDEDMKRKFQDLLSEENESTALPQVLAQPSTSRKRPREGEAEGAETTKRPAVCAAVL
Cyclin-dependent kinase 1, sequence (P06493 whole entry): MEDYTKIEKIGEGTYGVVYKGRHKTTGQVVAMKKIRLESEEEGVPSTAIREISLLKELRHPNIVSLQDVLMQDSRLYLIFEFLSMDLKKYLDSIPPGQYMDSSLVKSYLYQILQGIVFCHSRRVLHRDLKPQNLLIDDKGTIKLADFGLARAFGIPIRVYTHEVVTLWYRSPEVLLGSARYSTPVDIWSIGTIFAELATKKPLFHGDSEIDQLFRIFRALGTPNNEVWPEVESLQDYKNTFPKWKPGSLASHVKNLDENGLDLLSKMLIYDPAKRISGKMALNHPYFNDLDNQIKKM
Voltage-gated inwardly rectifying potassium channel KCNH2, sequence (Q12809 whole entry): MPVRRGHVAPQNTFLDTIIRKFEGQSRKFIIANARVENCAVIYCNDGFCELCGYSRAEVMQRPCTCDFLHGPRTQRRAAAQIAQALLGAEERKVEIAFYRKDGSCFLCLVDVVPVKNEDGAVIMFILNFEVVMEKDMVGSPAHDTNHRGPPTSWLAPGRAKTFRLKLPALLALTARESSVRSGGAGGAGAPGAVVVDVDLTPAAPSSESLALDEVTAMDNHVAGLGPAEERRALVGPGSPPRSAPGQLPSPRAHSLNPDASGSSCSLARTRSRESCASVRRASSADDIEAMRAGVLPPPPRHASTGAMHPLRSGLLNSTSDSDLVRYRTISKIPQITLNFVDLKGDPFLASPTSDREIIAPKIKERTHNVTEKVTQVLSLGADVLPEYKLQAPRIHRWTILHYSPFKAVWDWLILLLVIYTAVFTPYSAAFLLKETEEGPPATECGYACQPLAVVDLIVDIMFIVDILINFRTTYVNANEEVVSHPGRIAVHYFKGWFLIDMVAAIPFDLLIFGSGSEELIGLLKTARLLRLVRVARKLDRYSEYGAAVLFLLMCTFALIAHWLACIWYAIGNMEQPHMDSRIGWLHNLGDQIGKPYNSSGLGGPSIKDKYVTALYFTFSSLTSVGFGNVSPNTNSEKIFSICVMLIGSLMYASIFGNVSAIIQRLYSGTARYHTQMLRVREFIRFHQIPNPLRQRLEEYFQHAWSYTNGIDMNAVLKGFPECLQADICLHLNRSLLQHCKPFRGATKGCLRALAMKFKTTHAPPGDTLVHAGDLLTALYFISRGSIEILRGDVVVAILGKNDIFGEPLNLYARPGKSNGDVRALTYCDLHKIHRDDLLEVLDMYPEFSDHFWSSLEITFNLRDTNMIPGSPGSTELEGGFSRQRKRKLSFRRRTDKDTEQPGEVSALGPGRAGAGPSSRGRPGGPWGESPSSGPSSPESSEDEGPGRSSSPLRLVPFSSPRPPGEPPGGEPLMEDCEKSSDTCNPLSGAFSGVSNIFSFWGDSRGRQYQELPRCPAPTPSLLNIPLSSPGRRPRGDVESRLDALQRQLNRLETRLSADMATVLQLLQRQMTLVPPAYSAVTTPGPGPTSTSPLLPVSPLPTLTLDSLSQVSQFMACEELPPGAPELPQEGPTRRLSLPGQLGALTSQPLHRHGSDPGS
Ribosomal protein S6 kinase alpha-1 (Homo sapiens), sequence (Q15418 whole entry): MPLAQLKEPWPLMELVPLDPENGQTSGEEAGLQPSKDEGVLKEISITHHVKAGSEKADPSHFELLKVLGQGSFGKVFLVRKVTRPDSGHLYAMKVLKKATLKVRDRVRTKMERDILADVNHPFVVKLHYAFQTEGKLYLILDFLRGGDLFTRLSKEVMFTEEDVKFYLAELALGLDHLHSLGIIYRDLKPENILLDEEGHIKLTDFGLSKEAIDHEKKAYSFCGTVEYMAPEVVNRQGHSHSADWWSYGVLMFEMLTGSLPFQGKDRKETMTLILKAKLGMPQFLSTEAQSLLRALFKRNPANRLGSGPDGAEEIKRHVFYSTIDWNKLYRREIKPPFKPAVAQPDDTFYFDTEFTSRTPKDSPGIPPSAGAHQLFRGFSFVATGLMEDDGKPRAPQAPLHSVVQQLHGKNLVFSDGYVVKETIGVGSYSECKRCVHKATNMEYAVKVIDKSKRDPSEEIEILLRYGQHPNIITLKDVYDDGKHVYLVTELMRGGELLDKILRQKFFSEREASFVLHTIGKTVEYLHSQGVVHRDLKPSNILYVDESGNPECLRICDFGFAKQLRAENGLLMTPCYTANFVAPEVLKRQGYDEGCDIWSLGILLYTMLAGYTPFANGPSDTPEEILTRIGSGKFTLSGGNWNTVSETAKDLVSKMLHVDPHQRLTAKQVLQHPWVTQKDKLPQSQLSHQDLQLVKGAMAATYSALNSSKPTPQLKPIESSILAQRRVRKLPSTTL
KCNQ1/MINK (IKs), sequence (P51787 whole entry): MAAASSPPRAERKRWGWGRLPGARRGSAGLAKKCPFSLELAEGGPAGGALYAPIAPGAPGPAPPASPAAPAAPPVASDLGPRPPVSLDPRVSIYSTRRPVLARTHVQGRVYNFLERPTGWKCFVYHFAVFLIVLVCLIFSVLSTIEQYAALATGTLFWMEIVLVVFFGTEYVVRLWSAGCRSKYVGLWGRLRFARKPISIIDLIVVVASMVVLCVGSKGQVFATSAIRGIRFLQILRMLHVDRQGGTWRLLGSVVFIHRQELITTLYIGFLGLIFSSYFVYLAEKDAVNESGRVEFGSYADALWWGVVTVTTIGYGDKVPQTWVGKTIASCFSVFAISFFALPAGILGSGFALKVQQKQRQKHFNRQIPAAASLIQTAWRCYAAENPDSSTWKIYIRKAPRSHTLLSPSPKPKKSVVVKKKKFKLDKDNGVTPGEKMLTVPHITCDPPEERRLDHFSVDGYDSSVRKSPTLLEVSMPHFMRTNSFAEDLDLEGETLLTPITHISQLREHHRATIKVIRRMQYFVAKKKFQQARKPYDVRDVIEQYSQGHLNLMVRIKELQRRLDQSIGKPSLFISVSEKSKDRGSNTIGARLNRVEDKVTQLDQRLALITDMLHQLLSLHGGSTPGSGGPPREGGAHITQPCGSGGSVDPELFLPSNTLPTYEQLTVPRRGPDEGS
High affinity nerve growth factor receptor (Homo sapiens), sequence (P04629 33-796 limits assumed): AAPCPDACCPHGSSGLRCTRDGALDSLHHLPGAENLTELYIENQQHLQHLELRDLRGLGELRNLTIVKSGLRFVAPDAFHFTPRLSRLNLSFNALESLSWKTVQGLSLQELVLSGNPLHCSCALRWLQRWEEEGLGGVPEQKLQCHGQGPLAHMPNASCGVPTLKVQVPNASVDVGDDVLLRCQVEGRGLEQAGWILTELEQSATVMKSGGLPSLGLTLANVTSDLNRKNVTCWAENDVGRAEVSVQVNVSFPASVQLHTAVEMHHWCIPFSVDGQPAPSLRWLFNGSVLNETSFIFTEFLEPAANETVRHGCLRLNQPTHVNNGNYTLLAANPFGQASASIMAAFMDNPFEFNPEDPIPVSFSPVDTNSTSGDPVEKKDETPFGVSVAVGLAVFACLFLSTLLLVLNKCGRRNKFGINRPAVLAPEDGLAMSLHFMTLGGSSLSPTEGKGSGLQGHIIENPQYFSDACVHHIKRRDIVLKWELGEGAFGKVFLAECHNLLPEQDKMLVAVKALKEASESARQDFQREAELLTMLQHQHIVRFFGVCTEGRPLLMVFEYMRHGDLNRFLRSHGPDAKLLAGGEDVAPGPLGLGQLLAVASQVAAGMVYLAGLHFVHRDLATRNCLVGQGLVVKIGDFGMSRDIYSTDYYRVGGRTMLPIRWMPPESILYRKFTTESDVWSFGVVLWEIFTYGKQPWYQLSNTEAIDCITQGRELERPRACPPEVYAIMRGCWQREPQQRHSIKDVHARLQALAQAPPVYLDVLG
Kir2.1, sequence (P63252 whole entry): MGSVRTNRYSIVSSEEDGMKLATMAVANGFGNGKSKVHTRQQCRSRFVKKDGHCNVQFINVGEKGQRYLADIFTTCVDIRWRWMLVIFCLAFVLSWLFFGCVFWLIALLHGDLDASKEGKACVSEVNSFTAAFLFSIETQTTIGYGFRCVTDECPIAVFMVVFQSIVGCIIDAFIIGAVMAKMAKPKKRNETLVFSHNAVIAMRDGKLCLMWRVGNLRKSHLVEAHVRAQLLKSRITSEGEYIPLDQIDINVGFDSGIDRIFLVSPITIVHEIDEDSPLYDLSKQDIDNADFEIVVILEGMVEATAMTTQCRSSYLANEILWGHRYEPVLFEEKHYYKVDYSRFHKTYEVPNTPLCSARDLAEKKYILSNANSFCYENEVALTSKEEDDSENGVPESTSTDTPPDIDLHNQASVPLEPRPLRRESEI

A word on the IC50: it is the concentration that gives 50% inhibition. Read a high IC50 as lower potency. Take `CNc1cc(Nc2cnc(C#N)c(O[C@@H]3CCN(C)C3)n2)ncc1-c1cnn(C)c1`: 0.0044 µM corresponded to half-maximal inhibition in data set [1] (IC50). Moreover, the values for the Cp/dose in [2] and in data set [4] were under 20 nM and 320 nM, respectively. In data set [3], this molecule showed a metabolised at 0.5 h of 17%. In addition, the concentration at 6 h in [5] turned out to be 12 nM. Moreover, in [6], the concentration at 1 h was 193 nM.
In general, inhibition refers to the drop in the measured response relative to a control, in per cent. The solubility (thermodynamic) is the concentration in solution at equilibrium with solid. For `CNc1cc(Nc2cnc(C#N)c(O[C@H](C)CN(C)C)n2)ncc1-c1cnn(C)c1`, the concentration at 1 h was 910 nM in data set [7] and 555 nM in data set [6]. Besides, the results for the IC50 in [8], in [18] and in [21] were 3.2 µM, 10 µM and 12 µM, respectively. Also, the Therm_solubility in data set [9] worked out at 100 µg/mL. Moreover, in data set [10], the MTD came to 160 mg/kg. This molecule also had a CL in [11] of 0.132 L/h. In data set [12], the Vdss worked out at 0.209 L. Moreover, the Drug uptake result in data set [13] is on record as “Active”. Further, the PPB in data set [14] amounted to 70%. Further, the inhibition result in [15] was “Active”. In data set [3], this molecule came in with a metabolised at 0.5 h of 30%. In [16], the permeability turned out to be 8.8 ×10⁻⁶ cm/s. Moreover, the concentration at 6 h came to 57 nM in [5] and 45 nM in [22]. In data set [17], this molecule displayed an F of 48%. In addition, in [19], the thermodynamic solubility was over 8000 µg/mL. Besides, in data set [20], the inhibition result was “inactive”.
In the case of `COc1cc(Nc2cnc(C#N)c(O[C@H](C)CN(C)C)n2)ncc1-c1cnn(C)c1`, the Activity result in data set [23], in data set [26] and in [28] was “Non-toxic” throughout. Also, the inhibition is under 25% in data set [24]; over 80% in data set [29]; over 80% in data set [31]; over 80% in data set [32]; over 80% in [34]; under 25% in data set [37]. The inhibition in data set [38] and in [39] was over 80% each time. Also, the concentration at 1 h stood at 1850 nM in data set [7] and 1120 nM in [6]. Moreover, the IC50 is over 10 µM in [8], 0.0077 µM in data set [1], over 10 µM in [18] and 5 µM in data set [21]. The molecule further had a Therm_solubility in [9] of 70 µg/mL. For the same molecule, the inhibition at 10 µM in data set [25], in data set [27], in data set [30], in data set [33] and in data set [35] was under 25% throughout. Further, the MTD in data set [10] was over 300 mg/kg. The molecule also showed a clearance in data set [11] of 0.125 L/h. Further, the Vdss in [12] is 0.113 L. In data set [14], this molecule came in with a PPB of 82%. The molecule further registered a metabolised at 0.5 h in data set [3] of 38%. The molecule further came in with a permeability in data set [16] of 29 ×10⁻⁶ cm/s. For the same molecule, the concentration at 6 h worked out at 52 nM in data set [5] and 27 nM in data set [22]. The Drug uptake result in [36] is reported as “Active”. In data set [17], this molecule yielded an F of 61%. In addition, the solubility (thermodynamic) in [19] stood at 6200 µg/mL (≈ 15.2 mM). For the same molecule, the inhibition result in data set [40] and in data set [41] was “Active” in each case.
